The source of these data is patent US9481648B2, “Kinase inhibitors” (Respivert Limited, priority 2013, dated 2016).

Like-named read-outs stand apart in the source and are kept apart here.

The target of data set [1] is GSK 3α (Homo sapiens (Human), UniProt P49840). Put plainly: GSK 3α enzyme inhibition (FRET, Z-LYTE; Method 2). In kind it is biochemical. Conditions: read-out: IC50 Values for Enzyme Inhibition GSK3α. The method, boiled down:
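Phosphorylation was taken from the donor (coumarin) to acceptor (fluorescein) emission ratio after 1 h protease development, which cleaves only unphosphorylated peptide. Before that, peptide (8 μM stock) plus ATP (40 μM stock) reacted 1 h. This followed a 105 min RT preincubation of GSK3-α with compound stocks of 10–0.01 μg/mL.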

The subject of data set [2] is PBMCs. The data set is described as follows: LPS-induced TNFα/IL-8 release in PBMC cells (assay b). It counts as cell-based, human. Conditions: Homo sapiens, PBMC; LPS-stimulated; read-out: IC50 Values for Inhibition of Cytokine Release PBMCs IL-8. The method, then:
Peripheral blood mononuclear cells (PBMCs) from healthy subjects are separated from whole blood using a density gradient (Lymphoprep, Axis-Shield Healthcare). The PBMCs are seeded in 96 well plates and treated with compounds at the desired concentration for 2 hours before addition of 1 ng/mL LPS (Escherichia Coli 0111:B4 from Sigma Aldrich) for 24 hours under normal tissue culture conditions (37° C., 5% CO2). The supernatant is harvested for determination of IL-8 and TNFα concentrations by sandwich ELISA (Duo-set, R&D systems) and read on the fluorescence microplate reader (Varioskan® Flash, ThermoFisher Scientific).

In data set [3] the target is p38 MAPKα (MAPK14) (Homo sapiens (Human), UniProt Q16539). Put plainly: p38 MAPKα enzyme inhibition (FRET, Z-LYTE; Method 2). It counts as biochemical.
Data set [4] addresses CYP3A4 (Homo sapiens (Human), UniProt P08684). The data set is described as follows: CYP3A4 inhibition study. Conditions: for inhibition at 15 µM: human, read-out: 15 μM % Inh. It counts as in vitro ADME. The procedure: (§1) Assessment of certain in vitro ADME (absorption, distribution, metabolism, and excretion) parameters for certain compounds of the invention was conducted by BioFocus (Saffron Walden, UK).

For data set [5], the system named is β-catenin in d-U937 cells. Put plainly: Accumulation of β catenin in d-U937 cells (assay m). In kind it is cell-based, human. The method, boiled down: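 U937 cells were differentiated with PMA (100 ng/mL) for 48–72 hr, then treated with compound or vehicle for 18 hr. After formaldehyde fixation, β-catenin was detected with a primary antibody and an HRP secondary using TMB (OD450–655). Signal was normalised to crystal violet cell staining (OD595).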

Data set [6] deals with c-Src (Homo sapiens (Human), UniProt P12931). Put plainly: c-Src enzyme inhibition (FRET, Z-LYTE). It counts as biochemical. In outline: (§2)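 Syk or c-Src enzyme (3000 or 2000 ng/mL solutions) was preincubated 2 h at RT with compound solutions at 1, 0.1, 0.01 or 0.001 µg/mL. Z-LYTE FRET peptide (8 µM solution) and ATP (800 µM solution for c-Src, 60 µM for Syk) were then added for 1 h, followed by protease development for 1 h. Phosphorylation was read as the coumarin/fluorescein emission ratio.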

The target in data set [7] is Syk (Homo sapiens (Human), UniProt P43405). Put plainly: Syk enzyme inhibition (FRET, Z-LYTE). It counts as biochemical. In outline:
as §2

Data set [8] can be described thus: Plasma pharmacokinetics in rats, single intravenous or oral administration. In kind it is in vivo, rat (male Wistar). Conditions: rats. The procedure: Studies were conducted by Sai Life Sciences (Hinjewadi, Pune, India) to investigate the plasma pharmacokinetics and total colon tissue distribution of compounds of the invention. In particular, pharmacokinetic studies were carried out in: • male C57BL/6 mice, following a single oral administration; and • male Wistar rats following a single intravenous or oral administration.

Data set [9] relates to endotoxin (LPS)-induced uveitis in Lewis rats. Put plainly: Endotoxin-induced uveitis in rats (in vivo vi). More on the design: species or system rat. The procedure:
Male, Lewis rats (6-8 weeks old, Charles River UK Limited) are housed in cages of 3 at 19-21° C. with a 12 h light/dark cycle (07:00/19:00) and fed a standard diet of rodent chow and water ad libitum. Non-fasted rats are weighed, individually identified on the tail with a permanent marker, and receive a single intravitreal administration into the right vitreous humor (5 μL dose volume) of 100 ng/animal of LPS (Escherichia coli 0111:B4 prepared in PBS, Sigma Aldrich, UK) using a 32-gauge needle. Untreated rats are injected with PBS. […] Following euthanasia, the right eye of each animal is enucleated and dissected into front (anterior) and back (posterior) sections around the lens. Each section is weighed and homogenised in 500 μL of sterile phosphate buffered saline followed by 20 minutes centrifugation at 12000 rpm at 4° C.

In data set [10] the test system is TNBS-induced colitis in BDF1 mice. Put plainly: TNBS-induced colitis in mice (in vivo iv). Also on record: species or system mouse. Conditions: for inflammatory cell infiltrate in the reticular and laminar propria zones / ulcer grade and epithelial repair compared to the vehicle control: 5 mg/kg orally, 2 days; for inflammatory cell infiltrate in the reticular and laminar propria zones / ulcer grade and epithelial repair compared to the vehicle control / activity in in vivo model of colonic inflammation (histopathology analysis): TNBS-induced colitis, mice; for LP inflammation / Ulcer grade: TNBS-induced colitis in mice, 5 mg/kg oral; for activity in in vivo model of colonic inflammation (histopathology analysis): conducted over 2 days. The procedure:
Non-fasted, 10-12 week old, male BDF1 mice are dosed by oral gavage twice daily with either vehicle (5 mL/kg), reference item (Budesonide 2.5 mg/kg) or test compound (1 or 5 mg/kg) one day before (Day −1) stimulation of the inflammatory response by treatment with 2,4,6-trinitrobenzenesulphonic acid (TNBS) (15 mg/mL in 50% ethanol/50% saline). On Day 0 of the study TNBS (200 μL) is administered intra-colonically via a plastic catheter with BID dosing of the vehicle, reference or test compound continuing for 2 or 4 days. During the study, animals are weighed every day and stool observations are made and recorded as a score, based on stool consistency. At the time of sacrifice on Day 2 (or Day 4), the large intestine is removed and the length and weight recorded. Sections of the colon are taken for histopathology scoring to determine disease severity.

For data set [11], the target named is CYP2C9 (Homo sapiens (Human), UniProt P11712). Put plainly: CYP2C9 inhibition study. It counts as in vitro ADME. Conditions: 5 μM (precipitation at 15 μM). The procedure: as §1
The nature of data set [12]: Hydrolytic stability study. In kind it is physicochemical. Conditions: for % Parent Remaining: DMSO:water (3:1), 1 mg/mL. The procedure: Chemical stability of compounds of the invention was assessed in a mixture of DMSO and water (3:1) at a test compound concentration of 1 mg/mL
Sample Preparation • A 1.0 mg sample of test compound was dissolved in 750 μL of DMSO. Water (250 μL) was added slowly, ensuring no precipitation occurred.
Recording Stability • A 50 μL aliquot of the test solution was removed and analysed in duplicate by 5 μL HPLC injections. The peak area for the test compound was recorded following manual integration of the corresponding UV trace. • The test solution was heated to 60° C., with stirring, and 50 μL aliquots removed for HPLC analysis at 5 and 24 h timepoints.

[13] abbreviates: male, Wistar, rat, plasma, intravenous 0.25 mg/kg.
The mark [14] stands for this setting: Table 7c, eyes of LPS-stimulated rats, 1 mg/mL.

CYP3A4, sequence (P08684 whole entry): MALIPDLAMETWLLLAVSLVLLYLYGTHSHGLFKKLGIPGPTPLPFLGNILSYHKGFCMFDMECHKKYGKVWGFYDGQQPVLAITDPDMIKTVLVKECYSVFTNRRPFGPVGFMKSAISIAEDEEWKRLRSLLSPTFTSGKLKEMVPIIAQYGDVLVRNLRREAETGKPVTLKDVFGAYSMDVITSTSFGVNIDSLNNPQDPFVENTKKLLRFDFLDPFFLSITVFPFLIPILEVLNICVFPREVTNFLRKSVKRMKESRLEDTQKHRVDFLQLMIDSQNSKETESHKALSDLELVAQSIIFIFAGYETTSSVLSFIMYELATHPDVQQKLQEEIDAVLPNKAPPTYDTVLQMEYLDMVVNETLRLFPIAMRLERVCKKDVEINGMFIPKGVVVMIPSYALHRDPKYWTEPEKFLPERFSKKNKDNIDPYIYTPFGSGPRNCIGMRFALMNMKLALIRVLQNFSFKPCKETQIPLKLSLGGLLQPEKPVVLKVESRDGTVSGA
c-Src, sequence (P12931 whole entry, looked up): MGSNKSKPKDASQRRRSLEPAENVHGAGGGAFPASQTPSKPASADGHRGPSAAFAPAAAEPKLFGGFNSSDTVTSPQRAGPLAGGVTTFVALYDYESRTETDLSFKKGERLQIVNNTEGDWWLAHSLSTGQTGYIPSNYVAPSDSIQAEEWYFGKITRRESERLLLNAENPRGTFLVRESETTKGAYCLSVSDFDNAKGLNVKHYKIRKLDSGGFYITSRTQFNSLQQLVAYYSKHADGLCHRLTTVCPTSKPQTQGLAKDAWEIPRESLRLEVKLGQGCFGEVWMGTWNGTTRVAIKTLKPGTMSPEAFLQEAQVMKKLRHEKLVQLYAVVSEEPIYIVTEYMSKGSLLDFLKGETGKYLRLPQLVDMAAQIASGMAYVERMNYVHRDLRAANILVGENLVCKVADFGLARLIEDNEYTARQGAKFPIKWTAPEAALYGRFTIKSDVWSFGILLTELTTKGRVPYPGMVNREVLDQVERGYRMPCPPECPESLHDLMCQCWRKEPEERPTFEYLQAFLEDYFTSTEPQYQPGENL
GSK 3α, sequence (P49840 whole entry): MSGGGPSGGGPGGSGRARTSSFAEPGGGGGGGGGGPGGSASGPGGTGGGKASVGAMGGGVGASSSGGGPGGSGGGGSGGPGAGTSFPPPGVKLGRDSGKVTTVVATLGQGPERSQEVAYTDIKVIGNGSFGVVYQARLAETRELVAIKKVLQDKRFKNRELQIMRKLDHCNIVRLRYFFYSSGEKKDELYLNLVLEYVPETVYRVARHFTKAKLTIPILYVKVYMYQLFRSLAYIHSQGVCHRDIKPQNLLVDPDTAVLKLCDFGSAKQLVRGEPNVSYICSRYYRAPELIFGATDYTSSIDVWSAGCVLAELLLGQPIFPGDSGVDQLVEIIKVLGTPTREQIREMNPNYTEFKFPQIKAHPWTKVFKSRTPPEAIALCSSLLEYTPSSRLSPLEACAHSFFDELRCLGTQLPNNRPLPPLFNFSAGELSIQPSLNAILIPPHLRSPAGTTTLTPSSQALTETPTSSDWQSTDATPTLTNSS
p38 MAPKα (MAPK14), sequence (Q16539 whole entry): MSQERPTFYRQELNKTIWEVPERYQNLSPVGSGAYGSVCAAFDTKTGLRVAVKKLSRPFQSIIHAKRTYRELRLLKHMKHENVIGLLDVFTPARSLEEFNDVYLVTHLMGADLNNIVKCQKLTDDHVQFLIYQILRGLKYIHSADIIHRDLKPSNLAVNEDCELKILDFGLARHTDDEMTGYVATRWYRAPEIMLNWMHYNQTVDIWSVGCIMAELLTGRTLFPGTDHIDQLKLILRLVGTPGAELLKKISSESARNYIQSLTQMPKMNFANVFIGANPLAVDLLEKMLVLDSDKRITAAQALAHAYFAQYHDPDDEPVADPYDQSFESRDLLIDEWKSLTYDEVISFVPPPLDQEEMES
CYP2C9, sequence (P11712 whole entry): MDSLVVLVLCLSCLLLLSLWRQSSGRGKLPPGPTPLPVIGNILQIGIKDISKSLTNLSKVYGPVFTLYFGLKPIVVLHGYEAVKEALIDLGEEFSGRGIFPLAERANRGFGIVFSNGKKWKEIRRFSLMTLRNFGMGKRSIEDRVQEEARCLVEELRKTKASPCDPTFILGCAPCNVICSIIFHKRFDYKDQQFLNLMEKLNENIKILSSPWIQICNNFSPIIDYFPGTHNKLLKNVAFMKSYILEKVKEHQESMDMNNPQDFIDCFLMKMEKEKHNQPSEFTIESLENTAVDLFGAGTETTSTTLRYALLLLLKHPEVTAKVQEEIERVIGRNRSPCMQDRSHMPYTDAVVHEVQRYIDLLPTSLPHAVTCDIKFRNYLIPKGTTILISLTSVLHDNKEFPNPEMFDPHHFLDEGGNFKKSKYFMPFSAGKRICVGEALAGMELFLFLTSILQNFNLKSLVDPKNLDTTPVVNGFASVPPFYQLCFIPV

In general, IC50 refers to the concentration that gives 50% inhibition. In the case of `COc1c(NC(=O)Nc2ccc(Oc3ccnc(Nc4ccccc4)c3)c3ccccc23)cc(C(C)(C)C)cc1C(=O)N[C@H]1CCOC1` [84(d), 3-[[4-[(2-Anilino-4-pyridyl)oxy]-1-naphthyl]carbamoylamino]-5-tert-butyl-2-methoxy-N-[(3S)-tetrahydrofuran-3-yl]benzamide], the results for the IC50 in [1] and in [2] were 6.29 µM and 11.5 nM, respectively.
For the compound `COc1cc(Nc2nccc(Oc3ccc(NC(=O)Nc4cc(C(C)(C)C)cc(NS(C)(=O)=O)c4OC)c4ccccc34)n2)cc(S(=O)(=O)C2CC2)c1` [Example 5], the IC50 in [3] was 271 nM; in data set [1] it was 2.87 µM; in data set [4] (CYP3A4, 0 min preincubation) it was greater than 15 µM; in data set [4] (CYP3A4, 30 min preincubation), greater than 15 µM; in [6], 48 nM; in [7], 1170 nM. Also, the inhibition at 15 µM came out at 0% in data set [4] (CYP3A4, 0 min preincubation) and 27% in [4] (CYP3A4, 30 min preincubation). Further, the “% β-catenin induction” value in data set [5] (test compound 1 μg/mL) was 10%; in [5] (test compound 5 μg/mL), 27%; in data set [5] (test compound 10 μg/mL), 19%.
The AUC(0-inf) is the area under the concentration-time curve extrapolated to infinity. Higher therefore signals more exposure. In general, AUC(0-t) refers to the area under the concentration-time curve up to a stated or last time point. Low readings indicate low exposure, high ones high exposure. Broadly, the half-life is how long it takes for the measured level to halve. On to `CNC(=O)c1cc(C(C)(C)C)cc(NC(=O)Nc2ccc(Oc3ccnc(Nc4cc(OC)cc(OCCOCCOCCOC)c4)c3)c3ccccc23)c1OC` [Example 29, 5-(tert-Butyl)-2-methoxy-3-(3-(4-((2-((3-methoxy-5-(2-(2-(2-methoxyethoxy)ethoxy)-ethoxy)phenyl)amino)pyridin-4-yl)oxy)naphthalen-1-yl)ureido)-N-methylbenzamide], for which the IC50 in data set [3] came out at 26 nM; in data set [1] it was 6.32 µM; in data set [6], 19 nM; in data set [7], 96 nM. The same compound showed an AUC(0-inf) in data set [8] (setting [13]) of 295 ng·h/mL. In [8] (setting [13]), this compound showed an AUC(0-t) of 293 ng·h/mL. Besides, the half-life in [8] (setting [13]) was 42 min. The C0 in [8] (male, Wistar, rat, plasma, intravenous 0.25 mg/kg in 5% DMSO-7.5% Solutol HS15-87.5% normal saline) turned out to be 2500 ng/mL. The Vd in [8] (male, Wistar, rat, plasma, intravenous 0.25 mg/kg, read-out: Vss) was determined as 0.3 L/kg. Moreover, the CI in data set [8] (intravenous 0.25 mg/kg) is listed as 14.2 mL/min/kg. The Cell counts in data set [9] (setting [14]) worked out at 33.0 ± 6.7. Also, in data set [9] (setting [14]), the “IL-1β Anterior tissue” value came out at 441.3 ± 138.5 pg/mL. Also, the “IL-1β Posterior tissue” value in data set [9] (setting [14]) was 272.1 ± 93.8 pg/mL. Further, in [9] (rats treated with intravitreal endotoxin LPS, topical dosing), the “cytokine levels in both the anterior and posterior segments of the eyes” value was “significantly reduced”. Further, the “% β-catenin induction” value is 4% in data set [5] (test compound 1 μg/mL), 7% in data set [5] (test compound 5 μg/mL) and −4% in data set [5] (test compound 10 μg/mL).
On to `COCCOCCOCCOc1cc(Nc2cc(Oc3ccc(NC(=O)Nc4cc(C(C)(C)C)cc(C(N)=O)c4OC)c4ccccc34)ccn2)cc(OC)c1` [Example 34, 5-(tert-Butyl)-2-methoxy-3-(3-(4-((2-((3-methoxy-5-(2-(2-(2-methoxyethoxy)ethoxy)ethoxy)phenyl)amino)pyridin-4-yl)oxy)naphthalen-1-yl)ureido)benzamide], for which the IC50 in [3] worked out at 25 nM; in data set [1] it was 9.33 µM; in [6] it was 19 nM; in [7] it was 85 nM. Moreover, the “inflammatory cell infiltrate in the reticular and laminar propria zones” value in data set [10] was “marked reduction”. In addition, the “ulcer grade and epithelial repair compared to the vehicle control” value in data set [10] was “marked improvements”. Moreover, the LP inflammation in [10] turned out to be 2.6 ± 0.3. The compound further returned a Ulcer grade in data set [10] of 3.6 ± 0.2. Moreover, the “activity in in vivo model of colonic inflammation (histopathology analysis)” value in data set [10] is “substantial activity”. The “% β-catenin induction” value in [5] (test compound 1 μg/mL) is recorded as 1%; in data set [5] (test compound 5 μg/mL), 7%; in data set [5] (test compound 10 μg/mL), −9%.
Regarding `COc1cc(Nc2cc(Oc3ccc(NC(=O)Nc4cc(C(C)(C)C)cc(NS(C)(=O)=O)c4OC)c4ccccc34)ccn2)cc(C(=O)NCCN2CCN(C)CC2)c1` [Example 79], the IC50 in data set [3] came out at 56 nM; in [1], 4.33 µM; in data set [6], 35 nM; in [7] it was 339 nM. In [10], the “inflammatory cell infiltrate in the reticular and laminar propria zones” value was “marked reduction”. Moreover, the “ulcer grade and epithelial repair compared to the vehicle control” value in data set [10] is on record as “marked improvements”. Besides, the LP inflammation in [10] is listed as 3.5 ± 0.5. This compound came in with a Ulcer grade in [10] of 3.4 ± 0.6. For the same compound, in [10], the “activity in in vivo model of colonic inflammation (histopathology analysis)” value was “substantial activity”. The “% β-catenin induction” value in data set [5] (test compound 1 μg/mL) is listed as −4%; in data set [5] (test compound 5 μg/mL) it was 1%; in [5] (test compound 10 μg/mL), 5%.
Consider `C#CC(C)(C)c1cc(NC(=O)Nc2ccc(Oc3ccnc(Nc4cc(C)c5[nH]ncc5c4)n3)c3ccccc23)n(-c2ccc(C)cc2)n1` [Ref Cpd A], for which the “% Inh (inhibition at 5 μM reported instead)” value in [11] (CYP2C9, 0 min preincubation) is 31^[†] %; in data set [11] (CYP2C9, 30 min preincubation), 66^[†] %. For the same compound, the “15 μM % Inh” value in data set [4] (CYP3A4, 0 min preincubation) was 41%; in data set [4] (CYP3A4, 30 min preincubation), 92%.
Consider `C#Cc1cc(Nc2nccc(Oc3ccc(NC(=O)Nc4cc(C(C)C)nn4-c4ccc(C)cc4)c4ccccc34)n2)cc(C(=O)NCCN2CCOCC2)c1` [Reference Compound B, 3-ethynyl-5-((4-((4-(3-(3-isopropyl-1-(p-tolyl)-1H-pyrazol-5-yl)ureido)naphthalen-1-yl)oxy)pyrimidin-2-yl)amino)-N-(2-morpholinoethyl)benzamide, reference compound], for which the “decomposition under the conditions of the hydrolytic stability experiment” value in data set [12] (1 mg/mL in DMSO and water (3:1), 60° C., 5 and 24 h) is reported as “substantial decomposition”. Moreover, the “% Parent Remaining” value is 100% in [12] (0 min); 82% in data set [12] (60° C., 300 min); 36% in data set [12] (60° C., 1440 min).
